Assay results from US9669028B2, “Substituted 5-(pyrazin-2-yl)-1H-pyrazolo [3, 4-B] pyridine and pyrazolo [3, 4-B] pyridine derivatives as protein kinase inhibitors” (Arrien Pharmaceuticals LLC, priority 2011, dated 2017).
pIC50: −log10 of the molar value. ≈ marks a conversion by molar mass, not a printed value. Where “and” joins values, the source holds several entries; their conditions need not be identical. Identical values can stand only once.

Legend:
[1] = tested on: MPTP-injected C57 black mice; experiment: MPTP mouse model of Parkinson's disease, oral pre-treatment; type: in vivo; conditions: for protection against MPTP-induced TH cell loss and dopaminergic degeneration in substantia nigra and striatum: 10 mg/kg and 30 mg/kg oral; for locomotor activities in MPTP-injected mice / striatal dopamine levels in MPTP treated mice: orally administered, pre-treatment
[2] = physchem
[3] = in vivo; conditions: male, Sprague Dawley
Excerpt: To investigate the pharmacokinetic profiles of test compound following intravenous bolus administration and oral gavage in male Sprague Dawley rats.

[4] = BBB post-treatment results, concentration in mice brains; type: in vivo, mouse; conditions: pooled regions
Protocol: 32 C57 black mice (C57/bl6, 6-8 week old, 25-30 g) were purchased from Charles River Laboratories, Ohio. […] All animals were housed in Laboratory of Animal Resources vivarium at Iowa State University under standard conditions: constant temperature (22±1° C.), humidity (relative, 30%), and a 12-h light/dark cycle. Mice were allowed free access to food and water. Use of the animals and protocol procedures were approved and supervised by the Committee on Animal Care at Iowa State University (Ames, Iowa). Test compounds were dissolved in PBS for this study. Prior to treatment animals were pre-trained on rotarod for at least 3 minutes every day for three successive days. Group A animals were injected with saline (i.p.) to be used as controls. MPTP was dissolved in PBS and injected intraperitoneally (i.p.) at doses of 25 mg/kg, once daily for 5 days to group B, C and D animals. On day 4, prior to 4th MPTP injection, group C animals received test compounds (30 mg/kg, oral) daily for eight days. Similarly, on day 4, prior to 4th MPTP injection, group D animals received test compounds (5 mg/kg, i.v) daily for eight days. On day 9 (Post-test compounds administration) or day 12 (7 days post-MPTP), 4 animals/group were sacrificed, different brain regions including striatum and substantia nigra were dissected. Left striatum were used for neurochemical analysis. […]

[5] = tested on: Rat hepatoma (H4IIE) cell line; experiment: In vitro toxicology, general cytotoxicity; type: cell-based; conditions: rat, 24 h
Protocol: Cells were seeded into 96-well plates and cultured in medium containing 20% bovine serum. […] General cytotoxicity was evaluated by monitoring membrane integrity (MBR, cell supernatant), cell mass (PI) and mitochondrial function (cellular ATP levels). Rotenone was included as a positive control because it produces measurable effects in all three assays. DMSO at 0.5% in medium was included as a negative control. Three wells per exposure concentration were used in each assay. Results are summarized in Table 8 and are expressed as percent of control, with control values set at 100%. […] Test compounds 13 and 13 HCl were rank-ordered from most to least toxic based on individual membrane integrity and ATP responses as well as resultant TC50 values.
Test compounds 13 and 13 HCl were rank-ordered from highest to lowest probability of producing toxicity based first on membrane toxicity, then on ATP, and finally on cell mass (PI). It is important to note that within a given grouping compounds may be classified as to their primary effect being either cytotoxic, cytostatic, or reducing mitochondrial function. In general, compound responses above 80% of vehicle control are considered to be low-to-no effect, moderates generally rank 80% to 50% of vehicle control, and those compounds that cross the 50% mark are considered to have higher probability of toxicity.

[6] = tested on: MPTP-injected C57 black mice; experiment: MPTP mouse model, intravenous pre-treatment; type: in vivo; conditions: 5 mg/kg i.v.
Protocol: 24 C57 black mice (C57/bl6, 6-8 week old, and 25-30 g) were purchased from Charles River Laboratories, Ohio. […] Prior to treatment animals were pre-trained on rotarod for at least 3 minutes every day for three successive days. Test compound (5 mg/kg) was administered intravenously to group C animals, 24 h prior to MPTP-injection and continued daily for additional 11 days. MPTP was dissolved in PBS and injected intraperitoneally (i.p.) at doses of 25 mg/kg, once daily for 5 days to group B and C animals. Group A animals were injected with saline (i.p.) to be used as controls. Urine and Faeces were collected on Day 8, behavioural studies were performed on Day 9 (4-days post-MPTP). On day 12 (7 days post-MPTP), 4 animals/group were sacrificed, different brains regions including striatum and substantia nigra were dissected. Left striatum were used for neurochemical analysis. Other 4 animals/group were perfused and used for TH immunohistological studies.

[7] = tested on: MPTP-injected C57 black mice; experiment: MPTP mouse model, post-treatment study; type: in vivo; conditions: post-administration, oral and i.v routes
Protocol: 32 C57 black mice (C57/bl6, 6-8 week old, 25-30 g) were purchased from Charles River Laboratories, Ohio. […] All animals were housed in Laboratory of Animal Resources vivarium at Iowa State University under standard conditions: constant temperature (22±1° C.), humidity (relative, 30%), and a 12-h light/dark cycle. Mice were allowed free access to food and water. Use of the animals and protocol procedures were approved and supervised by the Committee on Animal Care at Iowa State University (Ames, Iowa). Test compounds were dissolved in PBS for this study. Prior to treatment animals were pre-trained on rotarod for at least 3 minutes every day for three successive days. Group A animals were injected with saline (i.p.) to be used as controls. MPTP was dissolved in PBS and injected intraperitoneally (i.p.) at doses of 25 mg/kg, once daily for 5 days to group B, C and D animals. On day 4, prior to 4th MPTP injection, group C animals received test compounds (30 mg/kg, oral) daily for eight days. Similarly, on day 4, prior to 4th MPTP injection, group D animals received test compounds (5 mg/kg, i.v) daily for eight days. On day 9 (Post-test compounds administration) or day 12 (7 days post-MPTP), 4 animals/group were sacrificed, different brain regions including striatum and substantia nigra were dissected. Left striatum were used for neurochemical analysis. Other 4 animals/group were perfused and used for TH immunohistological studies.

[8] = molecular target: recombinant human MAO-B (Homo sapiens (Human), UniProt P27338); experiment: Inhibition of monoamine oxidase MAO-B; type: biochemical; conditions: kynuramine 50 μM, 25 min at 37° C.
Protocol: (§1) Test compounds (0.01-100 μM) final DMSO concentration 0.1%, were incubated with recombinant human MAO-A (2 μg/mL) or MAO-B (2 μg/mL) in the presence of the probe substrate kynuramine (50 μM) for 25 min at 37° C. […] The reactions were terminated by addition of methanol containing internal standard for analytical quantification. The quenched samples were incubated at 4° C. for 10 min and centrifuged at 4° C. for 10 min. The supernatant was removed and analyzed by LC-MS/MS for the probe metabolite 4-hydroxyquinoline.

[9] = molecular target: recombinant human MAO-A (Homo sapiens (Human), UniProt P21397); experiment: Inhibition of monoamine oxidase MAO-A; type: biochemical; conditions: kynuramine 50 μM, 25 min at 37° C.
Protocol: as §1

[10] = molecular target: LRRK2 G2019S (Homo sapiens (Human), UniProt Q5S007, G2019S); experiment: LRRK2 G2019S Kinase Assay; type: biochemical; conditions: 10 μM ATP
How it was run: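 Radiometric filter-binding assay: enzyme, substrate peptide and compound were mixed on ice, ATP added, then incubated 20 min at 30° C. Reaction was stopped with phosphoric acid and the peptide captured on filters. Incorporated radioactivity was read by scintillation counting; staurosporine served as reference.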

[11] = molecular target: DYRK1A (Homo sapiens (Human), UniProt Q13627); experiment: In vitro DYRK1A inhibition assay; type: biochemical
[12] = tested on: 299 protein kinases+17 additional preview kinases; experiment: Protein Kinase Selectivity Profiler; type: biochemical, human; conditions: 10 μM ATP
Protocol: In vitro profiling of the 317 member kinase panel was performed at Reaction Biology Corporation using the “HotSpot” assay platform. Briefly, specific kinase/substrate pairs along with required cofactors were prepared in reaction buffer; 20 mM Hepes (pH 7.5), 10 mM MgCl2, 1 mM EGTA, 0.02% Brij35, 0.02 mg/ml BSA, 0.1 mM Na3VO4, 2 mM DTT, 1% DMSO. Compounds were delivered into the reaction, followed ˜20 min later by addition of a mixture of ATP (Sigma) and 33P ATP (PerkinElmer) to a final concentration of 10 μM. Reactions were carried out at 25° C. for 120 min, followed by spotting of the reactions onto P81 ion exchange filter paper (Whatman). Unbound phosphate was removed by extensive washing of filters in 0.75% phosphoric acid. […] IC50 values and curve fits were obtained using Prism (GraphPad Software). Kinome tree representations were prepared using Kinome Mapper (http://www.reactionbiology.com/apps/kinome/mapper/Launch Kinome.htm). Specifically for the LRRK2 enzyme the substrate LRRKtide (gene bank and protein access numbers NP_940980.2 Q5S007) and clone aa 970-2527 expressed in baculovirus in insect cells with N-terminal GST tag was employed in the study protocol. In the case of DYRK1A (SEQ ID NO 16) the substrate casein (gene bank and protein access numbers NP_001387 Q13627) full length clone expressed in insect with n-terminal tag was used.
A control compound was tested in 10-dose IC50 mode with 3-fold serial dilution starting at 20 μM. Reactions were carried out at 10 μM ATP. Data pages include raw data, % Enzyme activity (relative to DMSO controls), and curve fits.

[13] = molecular target: LRRK2 (Homo sapiens (Human), UniProt Q5S007); experiment: LRRK2 Kinase Assay; type: biochemical; conditions: 10 μM ATP
How it was run: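 Radiometric filter-binding assay: compound pre-incubated ~20 min with kinase and substrate peptide in 20 mM HEPES pH 7.5, 10 mM MgCl2, 1% DMSO, then 10 μM ATP with 33P-ATP added.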

Chain of LRRK2 (Q5S007 970-2527): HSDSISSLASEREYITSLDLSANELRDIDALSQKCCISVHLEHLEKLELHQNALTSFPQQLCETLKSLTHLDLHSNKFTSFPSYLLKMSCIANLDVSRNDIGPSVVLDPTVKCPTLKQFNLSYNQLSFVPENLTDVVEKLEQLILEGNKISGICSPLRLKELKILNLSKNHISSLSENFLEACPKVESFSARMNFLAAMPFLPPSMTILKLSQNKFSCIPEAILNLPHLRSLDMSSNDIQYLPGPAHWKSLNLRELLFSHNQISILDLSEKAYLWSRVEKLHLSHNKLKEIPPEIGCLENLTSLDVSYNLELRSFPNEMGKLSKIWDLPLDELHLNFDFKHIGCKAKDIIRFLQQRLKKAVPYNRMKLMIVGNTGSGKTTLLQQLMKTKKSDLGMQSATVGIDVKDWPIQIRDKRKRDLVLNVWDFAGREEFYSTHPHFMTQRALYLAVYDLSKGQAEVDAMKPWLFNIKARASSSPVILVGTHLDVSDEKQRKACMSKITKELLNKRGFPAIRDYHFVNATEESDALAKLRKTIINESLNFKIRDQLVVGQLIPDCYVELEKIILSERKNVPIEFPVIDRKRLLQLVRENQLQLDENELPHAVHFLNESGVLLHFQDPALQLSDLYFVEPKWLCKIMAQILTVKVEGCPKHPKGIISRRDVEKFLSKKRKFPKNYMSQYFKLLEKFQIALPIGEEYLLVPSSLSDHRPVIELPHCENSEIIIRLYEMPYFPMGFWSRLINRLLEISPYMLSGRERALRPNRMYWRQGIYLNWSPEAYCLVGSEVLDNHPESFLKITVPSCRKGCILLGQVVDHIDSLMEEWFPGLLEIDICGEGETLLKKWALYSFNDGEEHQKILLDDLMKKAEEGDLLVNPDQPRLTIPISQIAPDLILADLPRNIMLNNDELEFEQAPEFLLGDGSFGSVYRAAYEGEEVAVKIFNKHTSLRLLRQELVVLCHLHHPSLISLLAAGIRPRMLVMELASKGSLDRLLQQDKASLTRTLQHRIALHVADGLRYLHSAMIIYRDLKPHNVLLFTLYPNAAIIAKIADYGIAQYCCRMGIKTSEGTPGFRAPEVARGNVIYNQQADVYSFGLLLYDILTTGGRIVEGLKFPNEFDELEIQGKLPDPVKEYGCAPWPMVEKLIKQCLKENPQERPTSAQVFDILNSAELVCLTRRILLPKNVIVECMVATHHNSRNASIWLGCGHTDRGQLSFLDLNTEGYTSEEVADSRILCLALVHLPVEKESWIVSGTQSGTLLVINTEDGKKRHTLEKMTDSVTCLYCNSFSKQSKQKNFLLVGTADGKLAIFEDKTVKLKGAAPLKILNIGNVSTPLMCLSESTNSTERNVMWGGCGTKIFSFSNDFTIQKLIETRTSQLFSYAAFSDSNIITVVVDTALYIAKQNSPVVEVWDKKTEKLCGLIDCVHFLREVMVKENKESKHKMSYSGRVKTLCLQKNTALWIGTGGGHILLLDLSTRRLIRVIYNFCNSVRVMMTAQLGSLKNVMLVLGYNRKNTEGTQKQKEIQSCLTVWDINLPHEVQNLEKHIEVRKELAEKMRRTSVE
Chain of recombinant human MAO-B (P27338 whole entry): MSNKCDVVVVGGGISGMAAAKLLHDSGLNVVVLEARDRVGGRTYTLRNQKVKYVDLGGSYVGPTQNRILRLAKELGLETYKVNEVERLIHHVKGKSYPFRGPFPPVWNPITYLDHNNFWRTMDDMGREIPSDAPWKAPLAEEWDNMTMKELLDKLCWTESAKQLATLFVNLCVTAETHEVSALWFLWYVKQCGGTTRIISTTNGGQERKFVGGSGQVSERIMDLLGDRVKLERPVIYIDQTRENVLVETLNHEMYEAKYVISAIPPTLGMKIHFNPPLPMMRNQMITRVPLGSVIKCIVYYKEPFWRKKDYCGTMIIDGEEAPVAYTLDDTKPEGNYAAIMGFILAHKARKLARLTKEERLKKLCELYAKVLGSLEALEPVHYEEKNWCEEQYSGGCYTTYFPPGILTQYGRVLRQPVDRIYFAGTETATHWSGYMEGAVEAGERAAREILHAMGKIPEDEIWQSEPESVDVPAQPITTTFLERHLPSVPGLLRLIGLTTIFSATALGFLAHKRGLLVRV
Chain of LRRK2 G2019S (Q5S007 970-2527 G2019S): as the sequence (Q5S007 970-2527) above, with G1050S counted along it
Chain of recombinant human MAO-A (P21397 whole entry): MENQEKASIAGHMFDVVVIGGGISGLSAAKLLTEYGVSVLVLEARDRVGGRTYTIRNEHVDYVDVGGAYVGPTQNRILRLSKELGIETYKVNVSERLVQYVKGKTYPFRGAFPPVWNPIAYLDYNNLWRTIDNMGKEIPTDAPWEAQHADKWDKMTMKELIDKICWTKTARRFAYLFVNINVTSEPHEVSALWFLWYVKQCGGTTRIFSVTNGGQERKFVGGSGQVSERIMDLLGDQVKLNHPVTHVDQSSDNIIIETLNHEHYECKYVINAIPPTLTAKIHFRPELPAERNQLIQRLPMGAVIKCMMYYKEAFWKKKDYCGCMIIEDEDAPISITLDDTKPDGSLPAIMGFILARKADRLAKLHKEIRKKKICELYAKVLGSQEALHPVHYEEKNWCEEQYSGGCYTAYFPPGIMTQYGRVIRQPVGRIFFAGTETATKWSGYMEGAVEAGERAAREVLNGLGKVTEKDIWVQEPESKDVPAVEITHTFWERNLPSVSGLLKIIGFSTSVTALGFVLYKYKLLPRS

| Compound | protection against MPTP-induced TH cell loss and dopaminergic degeneration in substantia nigra and striatum [1] | locomotor activities in MPTP-injected mice [1] | striatal dopamine levels in MPTP treated mice [1] | solubility [2] [µM] | AUC(0-t) ([3]; rat, iv, 5 mg/kg) [ng·h/mL] | Vd ([3]; rat, iv, 5 mg/kg) [L/kg] | clearance ([3]; rat, iv, 5 mg/kg) [mL/min/kg] | half-life ([3]; rat, iv, 5 mg/kg) [h] | AUC(0-t) ([3]; rat, po, 30 mg/kg) [ng·h/mL] | Cmax ([3]; rat, po, 30 mg/kg) [ng/mL] | F ([3]; rat, po, 30 mg/kg) [%] | Tmax ([3]; rat, po, 30 mg/kg) [h] | ATP TC50 [5] [µM] | Cell Mass TC50 [5] [µM] | Mem Tox TC50 [5] [µM] | ATP % Control ([5]; 5 μM) [%] | Cell Mass % Control ([5]; 5 μM) [%] | Mem Tox % Control ([5]; 5 μM) [%] | ATP % Control ([5]; 10 μM) [%] | Cell Mass % Control ([5]; 10 μM) [%] | also measured |
| --- | --- | --- | --- | --- | --- | --- | --- | --- | --- | --- | --- | --- | --- | --- | --- | --- | --- | --- | --- | --- | --- |
| Cc1n[nH]c2ncc(-c3cncc(NC4CCN(C)CC4)n3)cc12.Cl [13 HCl, 6-(3-methyl-1H-pyrazolo[3,4-b]pyridin-5-yl)-N-(1-methylpiperidin-4-yl)pyrazin-2-amine hydrochloride] | dose-dependent protection | Improve Locomotor Activities | Restore Striatal Dopamine Levels | 50 | 1020 | 15.2 | 123 | 2.26 | 1040 | 133 | 24 | 6.7 | >50 | >50 | >50 | 93 | 89 | 93 | 91 | 81 | Calc. Conc. of test compound 13 HCl in Mice Brains ([4]; individual subjects, hydrochloride): 2.92 ng/g and 1.36 ng/g and 2.32 ng/g and 3.09 ng/g and 3.79 ng/g and 2.74 ng/g and 3.03 ng/g and 2.72 ng/g; Calc. Conc. of test compound 13 HCl in Mice Brains, Mean ([4]; mean of subjects): 2.75 ng/g; Mem Tox % Control ([5]; 10 μM): 91%; ATP % Control ([5]; 50 μM): 78%; Cell Mass % Control ([5]; 50 μM): 62%; Mem Tox % Control ([5]; 50 μM): 90%; protection against MPTP-induced TH neuronal loss in the substantia nigra and in the striatum [6]: Protect Against MPTP-Induced TH Neuronal Loss; protection against MPTP-induced histological deficits [7]: significantly protected; protection against MPTP-induced motor-deficits [7]: significantly protected; protection against MPTP-induced neurochemical deficits [7]: not against neurochemical deficits |
| Cc1n[nH]c2ncc(-c3cncc(NC4CCN(C)CC4)n3)cc12 [Compound 13, 6-(3methyl-1H-pyrazolo[3,4-b]pyridine-5yl)-N-(1-methylpiperidine-4yl)pyrazin-2-amine] | dose-dependent protection | Improve Locomotor Activities | Restore Striatal Dopamine Levels | 50 (≈ 16.2 µg/mL) |  |  |  | 2.26 |  |  | 24 | 6.7 | >50 | >50 | >50 | 99 | 93 | 100 | 99 | 88 | pIC50 [8]: < 4.00; pIC50 [9]: < 4.00; AUC(0-t) ([3]; in vivo, iv, 5 mg/kg): 1020 ng·h/mL; Vd ([3]; in vivo, iv, 5 mg/kg): 15.2 L/kg; clearance ([3]; in vivo, iv, 5 mg/kg): 123 mL/min/kg; AUC(0-t) ([3]; in vivo, po, 30 mg/kg): 1040 ng·h/mL; Cmax ([3]; in vivo, po, 30 mg/kg): 133 ng/mL; pIC50 [10]: > 6.30; Mem Tox % Control ([5]; 10 μM): 96%; ATP % Control ([5]; 50 μM): 74%; Cell Mass % Control ([5]; 50 μM): 71%; Mem Tox % Control ([5]; 50 μM): 94%; pIC50 [11]: > 6.30; activity against kinases in broader scope, relative to DMSO control ([12]; ABL1 T315I, ALK2, ARK5, Aurora A/B/C, BRAF, C-KIT, CLK1-4, CSF1R, DYRK1A-4, FLT3, GSK3β, JAK1-3, KDR, LCK ... TRKA-C, single dose): 5-15%; pIC50 [13]: > 6.30 |
| c1cc2cc(-c3cncc(N4CCOCC4)n3)cnc2[nH]1 [Compound 148, 4-(6-(1H-pyrrolo[2,3-b]pyridin-5-yl)pyrazin-2-yl)morpholine] | dose-dependent protection | Improve Locomotor Activities | Restore Striatal Dopamine Levels |  | 1020 | 15.2 | 123 | 2.26 | 1040 | 133 | 24 | 6.7 |  |  |  |  |  |  |  |  | pIC50 [8]: 5.06; pIC50 [9]: < 4.00; pIC50 [10]: > 6.30; pIC50 [11]: > 6.30; % enzyme inhibition relative to DMSO controls ([12]; LRRK2, LRRK2 G2019S, CHK1, DYRK1A, FLT3, MLK1, TNIK, TRKA, single dose 0.5 μM, 1 μM): 5-15%; protection against MPTP-induced histological deficits [7]: significantly protected; protection against MPTP-induced motor-deficits [7]: significantly protected; protection against MPTP-induced neurochemical deficits [7]: not against neurochemical deficits; pIC50 [13]: > 6.30 |
